Tests used:
TYK2 = target: T1, TYK2 (Homo sapiens, UniProt P29597); assay: Competition binding assay to determine Kd against JAK kinases: TYK2
T1 construct: made in house
Protocol: (§1) Competition binding assays used herein were developed, validated and performed as described in Fabian et al., Nature Biotechnology 2005, 23, 329-336. Kinases were produced as fusions to T7 phage (See, Fabian et al. or WO04/015142) or alternatively, the kinases were expressed in HEK-293 cells and subsequently tagged with DNA for PCR detection (See, WO08/005,310). For the binding assays, streptavidin-coated magnetic beads were treated with biotinylated affinity ligands for 30 min at rt to generate affinity resins. The liganded beads were blocked with excess biotin and washed with blocking buffer (SeaBlock (Pierce), 1% BSA, 0.05% Tween 20, 1 mM DTT) to remove unbound ligand and to reduce non-specific binding. Binding reactions were assembled by combining kinase, liganded affinity beads, and test compounds in 1× binding buffer (20% SeaBlock, 0.17×PBS, 0.05% Tween 20, 6 mM DTT). Test compounds were prepared as 100× stocks in DMSO and rapidly diluted into the aqueous environment. DMSO was added to control assays lacking a test compound. Primary screen interactions were performed in polypropylene 384-well plates in a final volume of 34 μL, while Kd determinations were performed in polystyrene 96-well plates in a final volume of 135 μL. The assay plates were incubated at room temperature with shaking for 1 hour, long enough for binding reactions to reach equilibrium, and the affinity beads were washed extensively with wash buffer (1×PBS, 0.05% Tween 20) to remove unbound protein. The beads were then resuspended in elution buffer (1×PBS, 0.05% Tween 20, 2 μM non-biotinylated affinity ligand) and incubated at room temperature with shaking for 30 min. The kinase concentration in the eluates was measured by quantitative PCR. Each kinase was tested individually against each compound. Kds were determined using eleven serial threefold dilutions. A selectivity score, which is a quantitative measure of selectivity of a compound against a panel of enzymes, may be calculated for a compound by dividing the number of enzymes for which a compound meets a set criteria, (for example, a binding constant of 100 nM or less), by the total number of enzymes tested.

[1] = tested on: GM-CSFR/JAK2/STAT5 pathway in CSTF-1 cells; assay: CSTF-1 cell-based reporter assay (beta-lactamase reporter, GM-CSF stimulated); details: Homo sapiens, GM-CSF at 2 ng/mL, 4 hours, read-out: Cell Assay: CS TF-1 reporter assay IC50
Protocol: CSTF-1 cells are derived from the human erythroleukemia cell line that is growth dependent on GM-CSF and has an intact GM-CSFR/JAK2/STAT5 pathway. The cell line contains stably integrated beta-lactamase reporter gene under the control of the […] (irf 1) response element recognized by the activated transcription factor STAT5. csTF-1 cells (Invitrogen K1219) were washed with assay media (97% OPTIMEM/0.5% dialyzed FBS/0.1 mM NEAA/1 mM Na pyr/P/S) and seeded in the same media at 5×10^5 cell/mL in T150 flask. After 16 hour incubation, cells were seeded at 2×10^5 cell/well in 50 μl volume, into Costar, clear bottom, 96-well assay plates. Serial dilutions of compounds were added to the plates with final DMSO concentration at 0.5% and GM-CSF at 2 ng/mL and the plates were then incubated at 30° C. and 5% CO2 for 4 hours. The plates were brought to room temperature before adding Substrate Mixture according to manufacturer's protocol (Invitrogen, Catalog #K1085). The assay plates containing the substrate mixture were incubated in the dark at room temperature for 2 hours. Blue and green fluorescence was measured with excitation at 409 nm and emission at 460 nm (for blue) and excitation at 409 nm and emission at 530 nm (for green) using Spectra Max Gemini EM.

[2] = tested on: panel of distinct kinases excluding mutant variants, typically 359 or 386 kinases; assay: Kinase selectivity score S10 from competition binding panel; details: compound at 10 μM; fraction of kinases with inhibition of 90% or greater
Protocol: as §1

JAK3 = target: T2, JAK3 (Homo sapiens, UniProt P52333); assay: Competition binding assay to determine Kd against JAK kinases: JAK3
T2 construct: made in house
T2 sequence (P52333 1-1124): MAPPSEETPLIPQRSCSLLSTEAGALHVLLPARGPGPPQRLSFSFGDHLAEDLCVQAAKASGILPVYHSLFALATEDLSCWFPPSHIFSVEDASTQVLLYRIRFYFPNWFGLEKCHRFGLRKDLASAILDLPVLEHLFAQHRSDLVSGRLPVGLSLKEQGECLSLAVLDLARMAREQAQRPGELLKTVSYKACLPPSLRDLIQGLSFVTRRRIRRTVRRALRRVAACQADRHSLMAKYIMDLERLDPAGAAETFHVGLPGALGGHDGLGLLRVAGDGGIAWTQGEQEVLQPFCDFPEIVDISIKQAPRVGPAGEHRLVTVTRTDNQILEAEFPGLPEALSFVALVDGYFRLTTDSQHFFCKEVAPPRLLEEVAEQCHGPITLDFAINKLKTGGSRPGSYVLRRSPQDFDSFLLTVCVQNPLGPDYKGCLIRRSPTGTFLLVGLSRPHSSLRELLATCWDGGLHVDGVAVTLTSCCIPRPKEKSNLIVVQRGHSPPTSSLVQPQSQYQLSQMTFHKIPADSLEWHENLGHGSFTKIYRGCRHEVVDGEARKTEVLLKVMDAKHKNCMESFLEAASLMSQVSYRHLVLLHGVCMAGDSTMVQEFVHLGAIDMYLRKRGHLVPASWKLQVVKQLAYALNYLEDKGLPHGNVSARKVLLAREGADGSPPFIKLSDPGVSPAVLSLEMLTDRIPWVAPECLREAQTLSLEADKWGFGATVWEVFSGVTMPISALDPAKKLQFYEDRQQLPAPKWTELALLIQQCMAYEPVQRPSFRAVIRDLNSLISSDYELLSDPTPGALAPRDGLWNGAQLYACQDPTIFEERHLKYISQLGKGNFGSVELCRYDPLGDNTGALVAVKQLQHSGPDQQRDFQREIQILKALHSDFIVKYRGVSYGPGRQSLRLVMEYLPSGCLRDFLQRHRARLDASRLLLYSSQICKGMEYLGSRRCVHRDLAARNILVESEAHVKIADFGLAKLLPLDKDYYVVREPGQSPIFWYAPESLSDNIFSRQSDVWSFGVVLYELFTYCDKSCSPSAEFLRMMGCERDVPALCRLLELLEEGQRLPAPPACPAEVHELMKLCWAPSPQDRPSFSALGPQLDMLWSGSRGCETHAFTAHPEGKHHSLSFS
Protocol: as §1

JAK2 = target: T3, JAK2 (Homo sapiens, UniProt O60674); assay: Competition binding assay to determine Kd against JAK kinases: JAK2
T3 construct: made in house
Protocol: as §1

T1 sequence (P29597 whole entry): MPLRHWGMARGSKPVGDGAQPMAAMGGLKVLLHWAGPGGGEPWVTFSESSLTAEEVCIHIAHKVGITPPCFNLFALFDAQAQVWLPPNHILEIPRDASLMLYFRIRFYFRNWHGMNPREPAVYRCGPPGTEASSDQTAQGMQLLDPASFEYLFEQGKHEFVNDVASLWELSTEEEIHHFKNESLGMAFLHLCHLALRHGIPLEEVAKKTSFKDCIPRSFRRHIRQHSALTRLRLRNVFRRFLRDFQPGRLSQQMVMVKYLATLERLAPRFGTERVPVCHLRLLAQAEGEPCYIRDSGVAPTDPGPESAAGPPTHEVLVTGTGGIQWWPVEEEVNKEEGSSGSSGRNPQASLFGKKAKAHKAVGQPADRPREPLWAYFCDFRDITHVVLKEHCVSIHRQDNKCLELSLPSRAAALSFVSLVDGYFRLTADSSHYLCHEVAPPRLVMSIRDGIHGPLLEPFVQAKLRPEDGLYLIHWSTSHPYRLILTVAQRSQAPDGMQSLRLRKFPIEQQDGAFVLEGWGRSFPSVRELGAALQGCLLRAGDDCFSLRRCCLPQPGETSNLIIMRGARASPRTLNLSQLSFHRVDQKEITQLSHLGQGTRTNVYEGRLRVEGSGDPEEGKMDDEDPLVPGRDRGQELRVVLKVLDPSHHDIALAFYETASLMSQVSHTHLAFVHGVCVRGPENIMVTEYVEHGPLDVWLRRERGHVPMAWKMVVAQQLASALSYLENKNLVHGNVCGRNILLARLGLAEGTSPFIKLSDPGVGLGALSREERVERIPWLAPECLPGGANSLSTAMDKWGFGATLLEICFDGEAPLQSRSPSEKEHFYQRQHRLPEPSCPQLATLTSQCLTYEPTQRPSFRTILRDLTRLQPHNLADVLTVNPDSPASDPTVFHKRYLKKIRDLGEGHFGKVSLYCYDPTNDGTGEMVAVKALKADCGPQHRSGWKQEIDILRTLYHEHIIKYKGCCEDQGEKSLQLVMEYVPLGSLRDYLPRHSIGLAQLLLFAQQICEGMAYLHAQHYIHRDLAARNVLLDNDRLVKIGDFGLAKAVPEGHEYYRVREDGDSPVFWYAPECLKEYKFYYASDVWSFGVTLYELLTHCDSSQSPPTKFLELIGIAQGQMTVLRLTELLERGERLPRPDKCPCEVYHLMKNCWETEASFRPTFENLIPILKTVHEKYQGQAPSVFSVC
T3 sequence (O60674 whole entry): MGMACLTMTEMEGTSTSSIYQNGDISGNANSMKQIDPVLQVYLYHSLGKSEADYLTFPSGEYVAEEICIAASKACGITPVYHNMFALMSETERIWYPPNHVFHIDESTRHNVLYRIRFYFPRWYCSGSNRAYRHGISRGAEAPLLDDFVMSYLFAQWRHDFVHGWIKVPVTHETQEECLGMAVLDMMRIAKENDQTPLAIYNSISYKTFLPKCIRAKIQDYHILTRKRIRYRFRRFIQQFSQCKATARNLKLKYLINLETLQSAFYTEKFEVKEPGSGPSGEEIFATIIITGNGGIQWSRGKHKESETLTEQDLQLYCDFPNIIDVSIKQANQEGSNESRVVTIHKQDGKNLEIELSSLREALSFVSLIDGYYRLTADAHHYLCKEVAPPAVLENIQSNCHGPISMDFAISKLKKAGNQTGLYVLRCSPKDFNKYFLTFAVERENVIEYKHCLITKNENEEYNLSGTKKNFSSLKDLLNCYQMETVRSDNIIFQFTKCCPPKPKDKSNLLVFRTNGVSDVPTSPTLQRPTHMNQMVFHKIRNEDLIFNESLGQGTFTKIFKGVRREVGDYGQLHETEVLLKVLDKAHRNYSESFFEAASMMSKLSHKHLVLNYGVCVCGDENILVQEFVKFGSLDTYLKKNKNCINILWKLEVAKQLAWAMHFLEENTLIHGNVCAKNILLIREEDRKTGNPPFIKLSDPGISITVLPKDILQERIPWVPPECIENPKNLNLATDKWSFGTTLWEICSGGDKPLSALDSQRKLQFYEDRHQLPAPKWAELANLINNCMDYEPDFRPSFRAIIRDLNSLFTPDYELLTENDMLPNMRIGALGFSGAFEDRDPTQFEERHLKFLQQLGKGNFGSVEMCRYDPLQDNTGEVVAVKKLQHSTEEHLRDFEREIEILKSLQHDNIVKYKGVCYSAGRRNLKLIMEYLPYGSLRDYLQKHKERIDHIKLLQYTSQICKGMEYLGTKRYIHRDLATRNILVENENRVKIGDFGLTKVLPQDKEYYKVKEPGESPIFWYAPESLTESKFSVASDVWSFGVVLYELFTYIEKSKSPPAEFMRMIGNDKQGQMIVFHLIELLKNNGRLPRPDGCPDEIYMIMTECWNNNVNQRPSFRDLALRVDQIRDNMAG

Cc1cc(Nc2nc(C(=O)c3ccc(F)cc3)cc3ccccc23)n[nH]1 [Example 1, (4-fluorophenyl)(1-(5-methyl-1H-pyrazol-3-ylamino)isoquinolin-3-yl)methanone]
Kd (TYK2): ≤ 10 nM
IC50 [1]: 100 to 500 nM
S-Score: S(10) at 10 μM [2]: A (A ≦ 0.3)
Kd (JAK3): 10 to 100 nM
Kd (JAK2): ≤ 5 nM

— US20130296363A1, “QUINOLINE AND ISOQUINOLINE DERIVATIVES FOR USE AS JAK MODULATORS” (AMBIT BIOSCIENCES CORPORATION, priority 2010, published 2013)
